Results reported in patent US6528286B1, “Mammalian cell culture process for producing glycoproteins” (Genentech, Inc., priority 1998, dated 2003).
Entries after “also recorded” stand apart in the source; their conditions may differ. Read-outs that look alike come from different tables or passages of the source.

How the values were obtained:
[1] = test system: CHO cells producing TNFR1-IgG1; format: cell-based, Chinese hamster; details: for SA content on day 9 / SA content on day 12 / Sialic Acid content on day 9 / Sialic Acid content on day 12: TNFR1-IgG1
From the text: The Chinese hamster ovary (CHO)cell line used as the mammalian host cell line was derived from CHO DG44 cells. The gene encoding the soluble type 1 TNFR-IgG1 was introduced into CHO DG44 cells by transfection. This was accomplished using the calcium phosphate technique for introducing DNA into mammalian cells. Clones expressing the TNFR1-IgG1 were amplified in methotrexate yielding high expressing clones and subsequently adapted to serum free medium. These cells were under continuous selective pressure until transferred to nonselective medium for growth and expansion of the inoculum. To provide cells for TNFR1-IgG1 production cultures the cell population described above was expanded from the medium containing methotrexate by serial subcultivations in vessels of increasing volumes to growth medium containing no methotrexate. For these steps of the process the non selective growth medium was DMEM/HAM F-12 based formulation (see, for example, U.S. Pat. No. 5,122,469, herein incorporated by reference in its entirety) with modified concentrations of some components, such as glucose, amino acids, salts, sugar, vitamins glycine, hypoxanthine, and thymidine; recombinant human insulin, hydrolyzed peptone (Protease Peptone 2 or 3, Primatone HS or Primatone RL), a cell protective agent such as Pluronic F68 (pluronic polyol) or the equivalent; Gentamycin; and trace elements. The cultures were controlled at pH 7.2+/−0.4 by the use of CO2 gas (acid) and /or Na2CO3 (base). Temperature was controlled near 37° C. during the growth period. Dissolved oxygen was maintained above 5% of air saturation by direct sparging with air and/or oxygen gas. The growth phase for each culture was followed by a second phase or transition phase wherein culture parameters were changed from growth to production conditions. During this transition phase the temperature of the culture system was decreased, generally to about between 30 and 35° C. and usually about 33° C. Copper chloride was added to the culture medium. Product accumulated during the production phase was analyzed for sialic acid content. […] Sialic acid content was analyzed by the method of Warren, L. (1959) J. Biol. Chem. 234:1971-1975. or the method of Anumula, K. R. (1995) Anal. Biochem. 230:24-30. Glycoprotein production culture was inoculated at 0.2% packed cell volume (PCV). Cells were grown for about 2 days under optimal growth conditions (37° C., low osmolality). When reaching 1% PCV (after about 2 days) the culture conditions were changed from optimal growth to production conditions. This means that growth is slowed under these conditions. This change includes a temperature shift to 33° C. and the addition of a complex feed (a concentrated form of media components). Due to the toxic effects of copper additions higher than 0.2 mM under growth conditions copper additions in the production phase of the glycoprotein production process were investigated. In the process, maximal cell mass was reached after the fifth day in culture. Since significant desialyation occurs after the fifth day in culture and especially significant decrease after about the eighth day in culture (FIG. 1), copper additions of 0.5 and 1.0 mM at day 6 and day 8 of the culture were investigated (FIG. 6). Further experiments were run to test copper additions at other concentrations. 0.38 mM copper was added.

[2] = test system: CHO cells producing TNFR1-IgG1; assay: Incubation of high cell concentration perfusion culture suspension in spinner flasks with CuCl2; format: cell-based, Chinese hamster; details: 1 mM and 5 mM CuCl2, 24 hours at 33° C.
Protocol: FIG. 2: Sialic acid (SA) content :of TNFR1-IgG1 after incubation of cell culture suspension taken from a perfusion culture at high cell concentration (6% packed cell volume, 77% viability at start of incubation) compared to starting sialic acid content before incubation. A sample of the perfusion culture was removed and incubated in spinner flasks containing 0, 1 mM and 5 mM CuCl2 for 24 hours at 33° C.
Sialic acid content was analyzed by the method of Warren, L. (1959) J. Biol. Chem. 234:1971-1975. or the method of Anumula, K. R. (1995) Anal. Biochem. 230:24-30.
To test the effect of CuCl2 on stabilization of the sialic acid content high cell concentration from a perfusion culture were incubated over night in spinner flasks with the addition 0, 1 and 5 mM CuCl2.

[3] = test system: CHO cells producing TNFR1-IgG1; assay: Impact of CuCl2 on growth and viability of CHO cells under growth conditions; format: cell-based, Chinese hamster
Protocol: CuCl2 was added to the culture medium before inoculation with cells at concentrations from 0 to 3.2 mM. Inhibition of growth could be detected above 0.2 mM.
CuCl2 was added to the culture medium before inoculation with cells at concentrations from 0-3.2 mM. A toxic effect could be observed at concentrations above 0.2 mM. Concentrations above 0.4 mM lead to rapid cell death.
Since heavy metals such as copper are toxic the effects of CuCl2 concentrations from 0-5 mM on growth and viability of CHO cells at 37° C. and 33° C. incubation temperature producing a glycoprotein were investigated(FIGS. 3, 4 and 5). Toxic effects and growth inhibition could be detected above 0.2 mM CuCl2.

[4] = test system: CHO-K1 cells; details: copper-supplemented culture medium; cited from earlier work
[5] = test system: Cytosolic and membrane-associated sialidase I; details: partially purified extracts from rat liver or rat skeletal muscle; cited from earlier work
[6] = test system: HeLa cell; details: HeLa cell culture medium; cited from earlier work
[7] = 0.5 and 1.0 mM CuCl2 added in production phase
[8] = copper 0.38 mM added on day 6, Table III
[9] = copper 0.5 mM added on day 6, Table II
[10] = copper 0.5 mM added on day 6, Table III
[11] = copper 0.5 mM added on day 8, Table II
[12] = copper 1.0 mM added on day 6, Table II
[13] = copper 1.0 mM added on day 8, Table II

[Cl][Cu][Cl] [CuCl2]
Culture performance and productivity [1, 7]: good culture performance and productivity | Sialic acid content in production cultures [1, 7]: stabilized | SA content on day 9 [1, 8]: 5.5 mol/mol | SA content on day 12 [1, 8]: 4.9 mol/mol | Sialic Acid content on day 9 [1, 9]: 5.3 mol/mol | Sialic Acid content on day 12 [1, 9]: 4.9 mol/mol | SA content on day 9 [1, 10]: 5.3 mol/mol | SA content on day 12 [1, 10]: 5.0 mol/mol | Sialic Acid content on day 9 [1, 11]: 5.0 mol/mol | Sialic Acid content on day 12 [1, 11]: 5.0 mol/mol | Sialic Acid content on day 9 [1, 12]: 5.0 mol/mol | Sialic Acid content on day 12 [1, 12]: 5.0 mol/mol | Sialic Acid content on day 9 [1, 13]: 5.0 mol/mol | Sialic Acid content on day 12 [1, 13]: 5.0 mol/mol | Product concentr. on day 9 [1, 8]: 324 mg/L | Product concentr. on day 12 [1, 8]: 518 mg/L | Product concentr. on day 9 [1, 9]: 230 mg/L | Product concentr. on day 12 [1, 9]: 304 mg/L | Product concentr. on day 9 [1, 10]: 350 mg/L | Product concentr. on day 12 [1, 10]: 545 mg/L | Product concentr. on day 9 [1, 11]: 244 mg/L | Product concentr. on day 12 [1, 11]: 417 mg/L | Product concentr. on day 9 [1, 12]: 218 mg/L | Product concentr. on day 12 [1, 12]: 286 mg/L | Product concentr. on day 9 [1, 13]: 289 mg/L | Product concentr. on day 12 [1, 13]: 371 mg/L | Stabilization of sialic acid content of TNFR1-IgG1 [2]: effective in stabilizing the sialic acid content in a dose dependent manner; also recorded: effective in stabilizing the SA content in a dose dependent manner | Toxic effect at 37 versus 33° C. incubation temperature ([3]; 0-5 mM CuCl2): very similar for 37 °C and 33 °C | CuCl2 concentration above which inhibition of growth could be detected ([3]; added before inoculation, 0 to 3.2 mM (0-5 mM)): above 0.2 mM | Copper concentration above which cell death results ([3]; conditions normally associated with cell growth): above 0.4 mM | CuCl2 concentration above which a toxic effect on viability could be observed ([3]; growth conditions, added before inoculation): above 0.2 mM

[Cu+2] [Cu^2+]
LD50 [4]: 126 µM | Copper ion concentration at which sialidase I was inhibited [5]: approximately 1 mM | Copper ion concentrations that did not interfere with cell growth [6]: 1-100 μm
